{"source": "patent US20100081702A1", "about": "(priority 2007, published 2010)", "tested_on": "concanavalin A (ConA)-induced mouse hepatitis models (T cell-dependent liver injury models)", "assay": "concanavalin A (ConA)-induced mouse hepatitis model, AST and ALT in serum", "description": "Aspartate aminotransferase (AST) and alanine aminotransferase (ALT) in serum were measured as indices for liver injury in concanavalin A (ConA)-induced mouse hepatitis models used as T cell-dependent liver injury models. The inhibitory effects of compounds of the present invention on liver injury were studied.\nA compound suspension was orally administered at a dose of 1 mg/kg to male BALE/c mice. 24 hours after the oral administration, ConA was intravenously administered at a dose of 20 mg/kg to the tails of the mice. 24 hours after the ConA administration, blood was collected from the mice, and AST and ALT in serum were measured.", "data": [{"smiles": "COc1ccc(CCCC(=O)c2ccc(CC[C@@](C)(N)CO)n2C)cc1C", "note": "[Compound 1]", "values": [{"measurement": "inhibitory effects on ALT level elevating effects", "setting": "result in words, 1 mg/kg oral, ConA-induced mouse hepatitis", "value": "significant inhibitory effects"}, {"measurement": "AST level (mean ± S.E., IU/L)", "setting": "serum, compound 1 mg/kg oral 24 hours before ConA 20 mg/kg intravenous, blood collected 24 hours after ConA, **P < 0.01, *P < 0.05 vs. solvent (solvent 236.9 ± 52.6, negative control 105.2 ± 26.1)", "value": "97.4 ± 9.1** IU/L"}, {"measurement": "ALT level (mean ± S.E., IU/L)", "setting": "serum, compound 1 mg/kg oral 24 hours before ConA 20 mg/kg intravenous, blood collected 24 hours after ConA, **P <0.01, *P <0.05 vs. solvent (solvent 454.1 ± 137.8, negative control 76.4 ± 14.2)", "value": "101.6 ± 19.6** IU/L"}]}]}
